Key:
Format in all cases: in vivo
[1] = tested on: Dobr; test: plant injury after spraying emerged plants (Table D)
From the text: Topsoil (silt loam) is sieved through a screen having 1.27 cm openings. In some of the tests the soil was mixed with fertilizer (1225 g/cu. m of 12/5/9 containing isobutylidene diurea), while in other tests the fertilizer was omitted. This mixture is steam sterilized and then placed in aluminum pans 6.985 cm deep having ten holes in the bottom each 0.635 cm in diameter. The soil mixture is compacted to a depth of 1.27 cm. from the top of the pan. A predetermined number of seeds of each of several dicotyledonous and monocotyledonous annual plant species and/or vegetative propagules for the perennial plant species are placed on the soil and pressed into the soil surface. The seeds and/or vegetative propagules are covered with 1.27 cm of a mixture of 50% topsoil and 50% of a mixture of Canadian sphagnum peat moss, vermiculite and a wetting agent. The pans are then placed on a capillary mat on a greenhouse bench and subirrigated as needed. After the plants reach the desired stage (9 to 14 days, 1 to 3 true leaf stage), each pan (except the control pans) is removed to a spraying chamber and sprayed by means of an atomizer, operating at a spray pressure of 170.3 kPa ([…]) at the application rates noted in Table D. In the spray solution is an amount of an emulsifying agent mixture (35% butylamine salt of dodecylbenzenesulfonic acid and 65% tall oil condensed with ethylene oxide in the ratio of 11 mols of ethylene oxide/mol of tall oil) to give a spray solution or suspension. The spray solution or suspension contains a sufficient amount of the candidate chemical in order to give application rates of the active ingredient corresponding to those shown in Table D below while applying a total amount of solution or suspension equivalent to 1870 L/Ha (200 gallons/acre). The pans are returned to the greenhouse and watered as before and the injury to the plants as compared to the control pans is observed at approximately 10-14 days (usually 11 days).
(§1) In the following Table D the legends used to identify the plant species are the same as those used in the preceding Table B.

[2] = tested on: Cobu; test: as above; parameters: scale not given here
From the text: (§2) Topsoil (silt loam) is sieved through a screen having 1.27 cm openings. […] This mixture is steam sterilized and then placed in aluminum pans 6.985 cm deep having ten holes in the bottom each 0.635 cm in diameter. The soil mixture is compacted to a depth of 1.27 cm. from the top of the pan. A predetermined number of seeds of each of several dicotyledonous and monocotyledonous annual plant species and/or vegetative propagules for the perennial plant species are placed on the soil and pressed into the soil surface. The seeds and/or vegetative propagules are covered with 1.27 cm of a mixture of 50% topsoil and 50% of a mixture of Canadian sphagnum peat moss, vermiculite and a wetting agent. The pans are then placed on a capillary mat on a greenhouse bench and subirrigated as needed.
as §1

[3] = tested on: Grft; test: as above; parameters: scale not given here
From the text: as §2, §1

[4] = tested on: Lacg; test: as above; parameters: scale not given here
From the text: as §2, §1

[5] = tested on: Bygr; test: as above; parameters: scale not given here
From the text: as §2, §1

[6] = tested on: Corn; test: as above; parameters: scale not given here
From the text: as §2, §1

[7] = tested on: Grso; test: as above; parameters: scale not given here
From the text: as §2, §1

[8] = tested on: Whez; test: as above; parameters: scale not given here
From the text: as §2, §1

[9] = tested on: Rice; test: as above; parameters: scale not given here
From the text: as §2, §1

[10] = tested on: Sobe; test: as above; parameters: scale not given here
From the text: as §2, §1

[11] = tested on: Yellow Nutsedge; test: Pre-emergent herbicidal activity (Table A); conditions: Cyperus, pre-emergence, Yens, 11.2 kg/ha, 10-14 days, read-out: herbicidal rating (% inhibition)
In short: (§3)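 Seeds or perennial propagules set on compacted topsoil, then covered with soil mixed with a known amount of test compound applied in acetone or water carrier. Ratings assigned on a scale based on percent inhibition of each species.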

[12] = tested on: Morningglory; test: Pre-emergent herbicidal activity (Table A); conditions: Ipomoea, pre-emergence, Mogl, 11.2 kg/ha, 10-14 days, read-out: herbicidal rating (% inhibition)
In short: as §3

[13] = tested on: Cocklebur; test: Pre-emergent herbicidal activity (Table A); conditions: Xanthium strumarium, pre-emergence, Cobu, 11.2 kg/ha, 10-14 days, read-out: herbicidal rating (% inhibition)
In short: as §3

[14] = tested on: Downy Brome; test: Pre-emergent herbicidal activity (Table A); conditions: Bromus tectorum, pre-emergence, Dobr, 11.2 kg/ha, 10-14 days, read-out: herbicidal rating (% inhibition)
In short: as §3

[15] = tested on: Barnyardgrass; test: Pre-emergent herbicidal activity (Table A); conditions: Echinochloa crus-galli, pre-emergence, Bygr, 11.2 kg/ha, 10-14 days, read-out: herbicidal rating (% inhibition)
In short: as §3

[16] = tested on: Velvetleaf; test: Pre-emergent herbicidal activity (Table A); conditions: Abutilon theophrasti, pre-emergence, Vele, 11.2 kg/ha, 10-14 days, read-out: herbicidal rating (% inhibition)
In short: as §3

**Q.** What does the source list for `COC(=O)c1c(OC)nc(C(F)(F)F)c(-c2nnc(C)o2)c1CC(C)C` [Compound 103, 3-pyridinecarboxylic acid, 2-methoxy-5-(5-methy1-1,3,4-oxadiazo1-2-yl)-4-(2-methylpropyl)-6-(trifluoromethyl)-, methyl ester]?
**A.** plant injury rating, Dobr ([1]; 0.0701 kg/ha): 0; plant injury rating, Dobr ([1]; 0.2803 kg/ha): 0; plant injury rating, Dobr ([1]; 1.1219 kg/ha): 0; plant injury rating, Dobr ([1]; 5.6050 kg/ha): 0; plant injury rating, Cobu ([2]; 0.0701 kg/ha): 0; plant injury rating, Cobu ([2]; 0.2803 kg/ha): 0; plant injury rating, Cobu ([2]; 1.1219 kg/ha): 0; plant injury rating, Cobu ([2]; 5.6050 kg/ha): 0; plant injury rating, Grft ([3]; 0.0701 kg/ha): 0; plant injury rating, Grft ([3]; 0.2803 kg/ha): 0; plant injury rating, Grft ([3]; 1.1219 kg/ha): 0; plant injury rating, Grft ([3]; 5.6050 kg/ha): 0; plant injury rating, Lacg ([4]; 0.0701 kg/ha): 0; plant injury rating, Lacg ([4]; 0.2803 kg/ha): 0; plant injury rating, Lacg ([4]; 1.1219 kg/ha): 0; plant injury rating, Lacg ([4]; 5.6050 kg/ha): 2; plant injury rating, Bygr ([5]; 0.0701 kg/ha): 0; plant injury rating, Bygr ([5]; 0.2803 kg/ha): 0; plant injury rating, Bygr ([5]; 1.1219 kg/ha): 0; plant injury rating, Bygr ([5]; 5.6050 kg/ha): 0; plant injury rating, Corn ([6]; 0.0701 kg/ha): 0; plant injury rating, Corn ([6]; 0.2803 kg/ha): 0; plant injury rating, Corn ([6]; 1.1219 kg/ha): 3; plant injury rating, Corn ([6]; 5.6050 kg/ha): 3; plant injury rating, Grso ([7]; 0.0701 kg/ha): 0; plant injury rating, Grso ([7]; 0.2803 kg/ha): 0; plant injury rating, Grso ([7]; 1.1219 kg/ha): 0; plant injury rating, Grso ([7]; 5.6050 kg/ha): 2; plant injury rating, Whez ([8]; 0.0701 kg/ha): 0; plant injury rating, Whez ([8]; 0.2803 kg/ha): 0; plant injury rating, Whez ([8]; 1.1219 kg/ha): 0; plant injury rating, Whez ([8]; 5.6050 kg/ha): 0; plant injury rating, Rice ([9]; 0.0701 kg/ha): 0; plant injury rating, Rice ([9]; 0.2803 kg/ha): 0; plant injury rating, Rice ([9]; 1.1219 kg/ha): 0; plant injury rating, Rice ([9]; 5.6050 kg/ha): 0; plant injury rating, Sobe ([10]; 0.0701 kg/ha): 0; plant injury rating, Sobe ([10]; 0.2803 kg/ha): 0; plant injury rating, Sobe ([10]; 1.1219 kg/ha): 0; plant injury rating, Sobe ([10]; 5.6050 kg/ha): 2; inhibition at 11200 g/ha [11]: 0 to 24%; inhibition at 11200 g/ha [12]: 75 to 100%; inhibition at 11200 g/ha [13]: 0 to 24%; inhibition at 11200 g/ha [14]: 50 to 74%; inhibition at 11200 g/ha [15]: 75 to 100%; inhibition at 11200 g/ha [16]: 75 to 100%

**Q.** Which results are given for `COC(=O)c1c(OC)nc(C(F)(F)F)c(C(=O)Cl)c1CC1CC1` [Compound 113, 3-pyridinecarboxylic acid, 5-(chlorocarbonyl)-4-(cyclopropylmethyl)-2-methoxy-6-(trifluoromethyl)-, methyl ester]?
**A.** plant injury rating, Dobr ([1]; 0.2803 kg/ha): 0; plant injury rating, Dobr ([1]; 1.1210 kg/ha): 0; plant injury rating, Dobr ([1]; 5.6050 kg/ha): 0; plant injury rating, Cobu ([2]; 0.2803 kg/ha): 0; plant injury rating, Cobu ([2]; 1.1210 kg/ha): 0; plant injury rating, Cobu ([2]; 5.6050 kg/ha): 0; plant injury rating, Grft ([3]; 0.2803 kg/ha): 0; plant injury rating, Grft ([3]; 1.1210 kg/ha): 0; plant injury rating, Grft ([3]; 5.6050 kg/ha): 0; plant injury rating, Lacg ([4]; 0.2803 kg/ha): 0; plant injury rating, Lacg ([4]; 1.1210 kg/ha): 0; plant injury rating, Lacg ([4]; 5.6050 kg/ha): 2; plant injury rating, Bygr ([5]; 0.2803 kg/ha): 0; plant injury rating, Bygr ([5]; 1.1210 kg/ha): 0; plant injury rating, Bygr ([5]; 5.6050 kg/ha): 0; plant injury rating, Corn ([6]; 0.2803 kg/ha): 0; plant injury rating, Corn ([6]; 1.1210 kg/ha): 0; plant injury rating, Corn ([6]; 5.6050 kg/ha): 0; plant injury rating, Grso ([7]; 0.2803 kg/ha): 0; plant injury rating, Grso ([7]; 1.1210 kg/ha): 0; plant injury rating, Grso ([7]; 5.6050 kg/ha): 0; plant injury rating, Whez ([8]; 0.2803 kg/ha): 0; plant injury rating, Whez ([8]; 1.1210 kg/ha): 0; plant injury rating, Whez ([8]; 5.6050 kg/ha): 0; plant injury rating, Rice ([9]; 0.2803 kg/ha): 0; plant injury rating, Rice ([9]; 1.1210 kg/ha): 0; plant injury rating, Rice ([9]; 5.6050 kg/ha): 0; plant injury rating, Sobe ([10]; 0.2803 kg/ha): 0; plant injury rating, Sobe ([10]; 1.1210 kg/ha): 0; plant injury rating, Sobe ([10]; 5.6050 kg/ha): 1; inhibition at 11200 g/ha [11]: 0 to 24%; inhibition at 11200 g/ha [12]: 25 to 49%; inhibition at 11200 g/ha [13]: 0 to 24%; inhibition at 11200 g/ha [14]: 75 to 100%; inhibition at 11200 g/ha [15]: 75 to 100%; inhibition at 11200 g/ha [16]: 25 to 49%

— patent US5391540A, “Substituted pyridine compounds” (Rohm and Haas Company, priority 1993, dated 1995)
